Results on two compounds are retold here after ChEMBL document CHEMBL1157952, “Neocimicigenosides A and B, cycloartane glycosides from the rhizomes of Cimicifuga racemosa and their effects on CRF-stimulated ACTH secretion from AtT-20 cells” (2006).

The test system of the test is AtT20. The test can be described thus: Induction of corticotropin releasing factor-stimulated ACTH secretion in mouse AtT20 cells. In kind it is functional.

Consider `CC(=O)O[C@H]1[C@H]2C[C@@H](C)[C@H]3[C@](O2)(OC1(C)C)[C@H](O)[C@@]1(C)[C@@H]2CC[C@H]4C(C)(C)[C@@H](O[C@@H]5OC[C@H](O)[C@H](O)[C@H]5O)CC[C@@]45C[C@@]25CC[C@]31C` [NEOCIMICIGENOSIDE A], for which the Activity was found to be 7 ng/mL.
`CC(=O)O[C@H]1[C@H]2C[C@@H](C)[C@H]3[C@](O2)(OC1(C)C)[C@H](O)[C@@]1(C)[C@@H]2CC[C@H]4C(C)(C)[C@@H](O[C@@H]5OC[C@@H](O)[C@H](O)[C@H]5O)CC[C@@]45C[C@@]25CC[C@]31C` [NEOCIMICIGENOSIDE B]: the Activity stood at 7.2 ng/mL.
